Test results reported in PMC5471521, “Novel selective β1-adrenoceptor antagonists for concomitant cardiovascular and respiratory disease” (The FASEB Journal, 2017).
Like-named read-outs stand apart in the source and are kept apart here.

How the values were obtained:
human β3-AR = biological target: T1, human β3-AR (Homo sapiens, UniProt P13945); assay: Radioligand binding at human β3-AR
T1 construct: expressed in transfected cells
Protocol: Chinese hamster ovary (CHO) cells that stably express human β1-ARs (CHO-β1: 1146 fmol/mg protein), human β2-ARs (CHO-β2: 466 fmol/mg protein), or human β3-ARs (CHO-β3: 790 fmol/mg protein) were grown as previously described ([11]). Human bronchial smooth muscle cells were obtained from Lonza (Basel, Switzerland) and grown in manufacturer media. Rat β-AR binding experiments (DNA from cDNA Resource Centre, Bloomsburg, PA, USA) were conducted by using transiently transfected CHO cells ([44]).
Confluent cells were examined (96-well plates, 2 h incubation at 37°C) as previously described ([11]) with ^3H-CGP12177 at 0.43–3.03 nM. Propranolol (10 μM) defined nonspecific binding. Kd values were derived from IC50 values by using the Cheng-Prusoff equation as previously described ([11]).

CYP1A2 = biological target: T2, CYP1A2 (Homo sapiens, UniProt P05177); assay: P450 inhibition in human liver microsomes; type: in vitro ADME; conditions: 0.25–20 μM, hydrochloride salts used
T2 construct: in human liver microsomes (batch 34689 for CYP1A2 and CYP3A4; batch 0910251 for CYP2C9, CYP2C19, and CYP2D6); tissue batch 34689; host or cells: human liver microsomes
T2 sequence (P05177 whole entry): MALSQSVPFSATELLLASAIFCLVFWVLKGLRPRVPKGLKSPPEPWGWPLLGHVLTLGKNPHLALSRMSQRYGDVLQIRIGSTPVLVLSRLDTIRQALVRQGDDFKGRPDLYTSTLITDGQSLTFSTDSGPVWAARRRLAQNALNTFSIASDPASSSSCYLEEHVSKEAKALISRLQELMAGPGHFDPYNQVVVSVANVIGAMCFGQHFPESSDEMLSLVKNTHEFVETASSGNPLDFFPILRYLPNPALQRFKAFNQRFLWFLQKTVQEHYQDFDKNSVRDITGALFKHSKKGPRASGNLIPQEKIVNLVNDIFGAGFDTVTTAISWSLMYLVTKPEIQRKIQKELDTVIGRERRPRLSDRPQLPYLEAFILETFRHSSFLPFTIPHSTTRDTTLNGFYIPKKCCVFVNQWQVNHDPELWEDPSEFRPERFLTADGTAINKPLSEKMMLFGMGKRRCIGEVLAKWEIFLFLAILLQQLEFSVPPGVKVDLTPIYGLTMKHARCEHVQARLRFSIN
Protocol: (§1) Concentrations of NDD-713.HCl and -825.HCl (0.25–20 μM) were incubated in triplicate (37°C for 4–40 min) with substrates specific for individual P450 isoforms (see Supplemental Data for full details) in human liver microsomes (batch 34689 for CYP1A2 and CYP3A4; batch 0910251 for CYP2C9, CYP2C19, and CYP2D6) at protein concentrations of 0.4 mg/ml (CYP1A2, CYP2C9, CYP2D6 and CYP3A4/5) or 1.0 mg/ml (CYP2C19) and a total organic solvent concentration <1%. Reaction was initiated by addition of NADPH-regenerating system and samples were quenched by addition of ice-cold acetonitrile, which contained 0.15 μg/ml diazepam as an internal standard, before determination of the concentration of specific metabolites by LC-MS. Compound IC50 values (and positive control) for each P450 isoform was assessed according to %reduction in formation of the specific metabolite (maximal metabolite formation occurring in the absence of inhibitor). […] Control samples were included to confirm that the LC-MS assay was not affected by test compounds (and potential metabolites). Studies were carried out by CDCO.

CYP3A4/5 = assay: P450 inhibition in human liver microsomes; type: in vitro ADME; conditions: 0.25–20 μM, hydrochloride salts used
Protocol: as §1

CYP2C19 = biological target: T3, CYP2C19 (Homo sapiens, UniProt P33261); assay: P450 inhibition in human liver microsomes; type: in vitro ADME; conditions: 0.25–20 μM, hydrochloride salts used
T3 construct: in human liver microsomes; tissue batch 0910251; host or cells: human liver microsomes
T3 sequence (P33261 whole entry): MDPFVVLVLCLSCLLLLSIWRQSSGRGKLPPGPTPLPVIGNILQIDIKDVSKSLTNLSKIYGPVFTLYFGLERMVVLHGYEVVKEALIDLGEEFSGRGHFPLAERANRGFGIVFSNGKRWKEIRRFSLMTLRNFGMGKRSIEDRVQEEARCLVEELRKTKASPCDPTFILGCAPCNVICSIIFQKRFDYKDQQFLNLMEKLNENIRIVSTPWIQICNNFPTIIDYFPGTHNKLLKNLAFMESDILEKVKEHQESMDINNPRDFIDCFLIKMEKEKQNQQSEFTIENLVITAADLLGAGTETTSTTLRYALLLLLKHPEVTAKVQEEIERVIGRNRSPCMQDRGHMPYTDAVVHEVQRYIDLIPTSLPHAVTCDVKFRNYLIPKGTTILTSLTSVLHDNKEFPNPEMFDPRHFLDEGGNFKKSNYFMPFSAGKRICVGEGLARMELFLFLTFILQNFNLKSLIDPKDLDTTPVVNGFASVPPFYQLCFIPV
Protocol: as §1

CYP2C9 = biological target: T4, CYP2C9 (Homo sapiens, UniProt P11712); assay: P450 inhibition in human liver microsomes; type: in vitro ADME; conditions: 0.25–20 μM, hydrochloride salts used
T4 construct: in human liver microsomes; tissue batch 0910251; host or cells: human liver microsomes
T4 sequence (P11712 whole entry): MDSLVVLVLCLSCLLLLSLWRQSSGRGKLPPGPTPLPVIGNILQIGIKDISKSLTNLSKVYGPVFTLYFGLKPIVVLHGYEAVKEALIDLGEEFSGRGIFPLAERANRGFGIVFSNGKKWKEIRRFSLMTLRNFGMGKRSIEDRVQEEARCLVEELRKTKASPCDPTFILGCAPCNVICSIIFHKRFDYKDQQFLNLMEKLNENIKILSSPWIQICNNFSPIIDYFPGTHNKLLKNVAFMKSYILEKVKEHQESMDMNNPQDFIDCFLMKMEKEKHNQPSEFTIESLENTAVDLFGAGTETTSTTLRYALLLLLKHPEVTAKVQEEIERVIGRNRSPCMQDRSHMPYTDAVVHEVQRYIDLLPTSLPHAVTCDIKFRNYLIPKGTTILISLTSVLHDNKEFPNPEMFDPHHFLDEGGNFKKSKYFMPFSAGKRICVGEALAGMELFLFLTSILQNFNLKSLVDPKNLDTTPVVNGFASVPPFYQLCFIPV
Protocol: as §1

[1] = PK analysis in male Sprague-Dawley rats; type: in vivo; conditions: rat; for AUC(0-t) / half-life / clearance / Vd / Cmax / Tmax / bioavailability: male, Sprague-Dawley; for AUC(0-t) / half-life / clearance / Vd / Cmax / Tmax / AUC0-t/dose: hydrochloride salt forms; for half-life: read-out: t1/2, app (converted); for Vd: read-out: Vss; for Unbound plasma level at Cmax below β2-AR Kd / Likely duration of β1-AR blockade: 20 mg/kg p.o.; for Likely duration of β1-AR blockade: judged from PK profile vs Kd
Protocol: Blood samples were centrifuged, supernatant plasma was removed, and plasma concentrations of compounds were determined by LC-MS. […] Studies were carried out by CDCO.

5-HT2A = 5-HT2A (Homo sapiens, UniProt P28223); assay: Cerep receptor radioligand-binding assay; conditions: for Ki: concentration-response, Cheng-Prusoff
Chain of 5-HT2A (P28223 whole entry): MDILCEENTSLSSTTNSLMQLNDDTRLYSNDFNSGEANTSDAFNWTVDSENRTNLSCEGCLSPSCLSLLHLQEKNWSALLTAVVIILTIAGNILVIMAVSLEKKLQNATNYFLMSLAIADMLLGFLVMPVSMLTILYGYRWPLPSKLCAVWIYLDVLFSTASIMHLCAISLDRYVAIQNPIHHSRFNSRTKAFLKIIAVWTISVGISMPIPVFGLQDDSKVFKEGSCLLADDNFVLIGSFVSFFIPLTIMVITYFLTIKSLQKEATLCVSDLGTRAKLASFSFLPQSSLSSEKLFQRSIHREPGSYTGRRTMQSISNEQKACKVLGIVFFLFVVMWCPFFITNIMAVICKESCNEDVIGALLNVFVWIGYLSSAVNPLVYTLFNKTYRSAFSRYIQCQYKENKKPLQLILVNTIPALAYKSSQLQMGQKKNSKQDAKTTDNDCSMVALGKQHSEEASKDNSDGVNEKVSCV
Protocol: […]; Ki (inhibition constant) was calculated by using the Cheng-Prusoff equation from the mean of duplicate determinations in cell-based receptor radioligand-binding assays. Cerep in vitro pharmacology profiling service was used (see the Supplemental Data for a list of the assays used).

[2] = Lipophilicity (chromatographic logD); type: physicochemical; conditions: octanol/water, estimated from chromatographic retention
Protocol: Octanol–water partition coefficient values (logD) of NDD-713 and -825 were estimated as described in Lombardo et al. ([49]) by correlation of the chromatographic retention properties of compounds against the characteristics of standard compounds with known partition coefficient values. Studies were carried out by CDCO.

[3] = biological target: T5, native β2-AR in human bronchial smooth muscle cells (Homo sapiens, UniProt P07550); assay: Antagonism of cimaterol-induced 3H-cAMP accumulation in human bronchial smooth muscle cells; type: cell-based; conditions: cimaterol agonist, mean ± SEM
T5 construct: human bronchial smooth muscle cells (that natively express β2-AR); host or cells: human bronchial smooth muscle cells
T5 sequence (P07550 whole entry): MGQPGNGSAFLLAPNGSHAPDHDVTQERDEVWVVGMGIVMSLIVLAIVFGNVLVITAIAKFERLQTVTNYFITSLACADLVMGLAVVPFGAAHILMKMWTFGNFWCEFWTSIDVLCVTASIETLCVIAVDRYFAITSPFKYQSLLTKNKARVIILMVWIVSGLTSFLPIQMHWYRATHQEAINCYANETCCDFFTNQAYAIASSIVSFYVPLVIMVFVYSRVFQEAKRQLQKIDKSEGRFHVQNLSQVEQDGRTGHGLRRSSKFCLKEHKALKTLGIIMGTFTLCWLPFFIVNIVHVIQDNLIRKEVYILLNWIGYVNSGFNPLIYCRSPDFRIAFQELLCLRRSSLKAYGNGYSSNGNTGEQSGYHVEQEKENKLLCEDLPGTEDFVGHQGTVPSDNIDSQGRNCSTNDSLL
Protocol: Human bronchial smooth muscle cells were obtained from Lonza (Basel, Switzerland) and grown in manufacturer media. Rat β-AR binding experiments (DNA from cDNA Resource Centre, Bloomsburg, PA, USA) were conducted by using transiently transfected CHO cells ([44]). […] Antagonist Kd values were calculated from a rightward shift of the agonist concentration response curve by using the Gaddum equation as previously described ([46]).

CYP2D6 = CYP2D6 (Homo sapiens, UniProt P10635); assay: P450 inhibition in human liver microsomes; type: in vitro ADME; design: in human liver microsomes (batch 34689 for CYP1A2 and CYP3A4; batch 0910251 for CYP2C9, CYP2C19, and CYP2D6); tissue batch 0910251; host or cells: human liver microsomes; conditions: 0.25–20 μM, hydrochloride salts used
Chain of CYP2D6 (P10635 whole entry): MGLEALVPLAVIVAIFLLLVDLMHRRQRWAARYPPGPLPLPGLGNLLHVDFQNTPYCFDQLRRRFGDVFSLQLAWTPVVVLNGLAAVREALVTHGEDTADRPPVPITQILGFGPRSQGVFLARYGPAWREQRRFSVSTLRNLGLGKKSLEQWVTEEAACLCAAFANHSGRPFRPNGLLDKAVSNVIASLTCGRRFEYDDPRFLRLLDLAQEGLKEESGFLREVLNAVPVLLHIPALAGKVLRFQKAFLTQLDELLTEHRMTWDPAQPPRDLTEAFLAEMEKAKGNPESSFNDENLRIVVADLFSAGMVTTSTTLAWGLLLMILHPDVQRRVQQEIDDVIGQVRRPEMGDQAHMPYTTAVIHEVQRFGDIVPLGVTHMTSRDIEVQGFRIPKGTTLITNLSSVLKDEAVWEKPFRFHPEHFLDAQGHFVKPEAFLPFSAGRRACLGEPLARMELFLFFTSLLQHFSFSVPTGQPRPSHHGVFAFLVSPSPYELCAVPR
Protocol: as §1

[4] = plasma, iv, i.v. 2 mg/kg, mean ± SD n = 3
[5] = plasma, iv, i.v. 2 mg/kg, read-out: Plasma CLtotal
[6] = plasma, iv, i.v. 6 mg/kg, mean ± SD n = 3
[7] = plasma, iv, i.v. 6 mg/kg, read-out: Plasma CLtotal
[8] = plasma, iv, i.v. 20 mg/kg, mean ± SD n = 3
[9] = plasma, iv, i.v. 20 mg/kg, read-out: Plasma CLtotal
[10] = whole blood, iv, i.v. 2 mg/kg, read-out: Blood CLtotal
[11] = whole blood, iv, i.v. 6 mg/kg, read-out: Blood CLtotal
[12] = whole blood, iv, i.v. 20 mg/kg, read-out: Blood CLtotal
[13] = pH 3, chromatographic estimate, read-out: Distribution coefficient, pH 3 (gLogDpH 3)
[14] = pH 7.4, chromatographic estimate, read-out: Distribution coefficient, pH 7.4 (gLogDpH 7.4)

T1 sequence (P13945 whole entry): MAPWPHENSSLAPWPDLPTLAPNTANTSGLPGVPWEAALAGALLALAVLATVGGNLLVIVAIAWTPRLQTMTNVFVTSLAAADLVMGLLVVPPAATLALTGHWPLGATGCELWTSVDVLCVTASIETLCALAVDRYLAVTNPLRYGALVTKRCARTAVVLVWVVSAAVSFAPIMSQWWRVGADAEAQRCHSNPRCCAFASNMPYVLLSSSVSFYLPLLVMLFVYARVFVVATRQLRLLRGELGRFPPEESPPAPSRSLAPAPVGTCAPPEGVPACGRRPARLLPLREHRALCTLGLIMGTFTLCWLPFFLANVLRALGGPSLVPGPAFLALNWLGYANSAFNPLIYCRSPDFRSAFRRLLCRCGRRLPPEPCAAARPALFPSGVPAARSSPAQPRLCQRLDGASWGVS

NC(=O)c1ccc(OCCNC[C@H](O)COc2ccc3c(c2)OC[C@@H](COCC2CC2)O3)cc1 [NDD-713]
Affinity at human β3-AR (human β3-AR): so low that accurate measurements were not possible
IC50 (CYP1A2): > 20 µM
IC50 (CYP3A4/5): > 20 µM
IC50 (CYP2C19): > 20 µM
IC50 (CYP2C9): > 20 µM
AUC(0-t) ([1]; plasma, iv, i.v. 2 mg/kg): 1.2 ± 0.1 µM·h
half-life [1, 4]: 1.7 ± 0.2 h
clearance [1, 5]: 62 ± 4 mL/min/kg
Vd ([1]; plasma, iv, i.v. 2 mg/kg): 4.3 ± 0.4 L/kg
AUC(0-t) ([1]; plasma, iv, i.v. 6 mg/kg): 4.6 ± 0.3 µM·h
half-life [1, 6]: 1.6 ± 0.1 h
clearance [1, 7]: 43 ± 1 mL/min/kg
Vd ([1]; plasma, iv, i.v. 6 mg/kg): 3.6 ± 0.2 L/kg
AUC(0-t) ([1]; plasma, iv, i.v. 20 mg/kg): 14.7 ± 1 µM·h
half-life [1, 8]: 2 h
clearance [1, 9]: 51 ± 2 mL/min/kg
Vd ([1]; plasma, iv, i.v. 20 mg/kg): 4.2 ± 0.2 L/kg
AUC(0-t) ([1]; plasma, po, p.o. 2 mg/kg): 0.6 ± 0.2 µM·h
Cmax ([1]; plasma, po, p.o. 2 mg/kg): 200 ± 100 nM
Tmax ([1]; plasma, po, p.o. 2 mg/kg): 0.5 h
AUC(0-t) ([1]; plasma, po, p.o. 10 mg/kg): 5.1 ± 0.2 µM·h
Cmax ([1]; plasma, po, p.o. 10 mg/kg): 2100 ± 600 nM
Tmax ([1]; plasma, po, p.o. 10 mg/kg): 0.75 h
half-life ([1]; plasma, po, p.o. 10 mg/kg): 1.5 h
AUC(0-t) ([1]; plasma, po, p.o. 20 mg/kg): 6.3 ± 0.3 µM·h
Cmax ([1]; plasma, po, p.o. 20 mg/kg): 2000 ± 100 nM
Tmax ([1]; plasma, po, p.o. 20 mg/kg): 0.75 h
half-life ([1]; plasma, po, p.o. 20 mg/kg): 2.1 h
bioavailability ([1]; plasma, po, 2 mg/kg): 50 ± 11%
bioavailability ([1]; plasma, po, 10 mg/kg): 77 ± 3%
bioavailability ([1]; plasma, po, 20 mg/kg): 44 ± 1%
clearance [1, 10]: 51 ± 3 mL/min/kg
clearance [1, 11]: 36 ± 1 mL/min/kg
clearance [1, 12]: 42 ± 1 mL/min/kg
Unbound plasma level at Cmax below β2-AR Kd [1]: at least 5 fold
Likely duration of β1-AR blockade [1]: 10 h
AUC0-t/dose ([1]; i.v. 2 mg/kg): 0.6 ± 0.1 μM ⋅ h/(mg/kg)
AUC0-t/dose ([1]; i.v. 6 mg/kg): 0.8 ± 0 μM ⋅ h/(mg/kg)
AUC0-t/dose ([1]; i.v. 20 mg/kg): 0.7 ± 0 μM ⋅ h/(mg/kg)
AUC0-t/dose ([1]; p.o. 2 mg/kg): 0.4 ± 0.1 μM ⋅ h/(mg/kg)
AUC0-t/dose ([1]; p.o. 10 mg/kg): 0.5 ± 0.1 μM ⋅ h/(mg/kg)
AUC0-t/dose ([1]; p.o. 20 mg/kg): 0.3 ± 0 μM ⋅ h/(mg/kg)
β1-selectivity over the 5-HT2A receptor (5-HT2A): 510 fold
Ki (5-HT2A): 7.7 µM
chromatographic logD [2, 13]: 1.7
chromatographic logD [2, 14]: 2.3
Kd [3]: 3.39 µM
IC50 (CYP2D6): > 20 µM

O=C1NCc2cc(OCCNC[C@H](O)COc3ccc4c(c3)OC[C@@H](COCC3CC3)O4)ccc21 [NDD-825]
Affinity at human β3-AR (human β3-AR): so low that accurate measurements were not possible
IC50 (CYP1A2): > 20 µM
IC50 (CYP3A4/5): > 20 µM
IC50 (CYP2C19): > 20 µM
IC50 (CYP2C9): > 20 µM
AUC(0-t) ([1]; plasma, iv, i.v. 2 mg/kg): 1.4 µM·h
half-life [1, 4]: 5.3 ± 0.3 h
clearance [1, 5]: 54 ± 2 mL/min/kg
Vd ([1]; plasma, iv, i.v. 2 mg/kg): 6 ± 0.5 L/kg
AUC(0-t) ([1]; plasma, iv, i.v. 6 mg/kg): 3.8 ± 0.2 µM·h
half-life [1, 6]: 7.3 ± 0.1 h
clearance [1, 7]: 59 ± 1 mL/min/kg
Vd ([1]; plasma, iv, i.v. 6 mg/kg): 5 L/kg
AUC(0-t) ([1]; plasma, iv, i.v. 20 mg/kg): 12.1 ± 0.3 µM·h
half-life [1, 8]: 7.1 ± 1.3 h
clearance [1, 9]: 55 ± 1 mL/min/kg
Vd ([1]; plasma, iv, i.v. 20 mg/kg): 4.7 L/kg
AUC(0-t) ([1]; plasma, po, p.o. 2 mg/kg): 0.4 ± 0.1 µM·h
Cmax ([1]; plasma, po, p.o. 2 mg/kg): 100 nM
Tmax ([1]; plasma, po, p.o. 2 mg/kg): 1.38 h
half-life ([1]; plasma, po, p.o. 2 mg/kg): 9.8 ± 0.2 h
AUC(0-t) ([1]; plasma, po, p.o. 10 mg/kg): 3 ± 0.4 µM·h
Cmax ([1]; plasma, po, p.o. 10 mg/kg): 800 ± 100 nM
Tmax ([1]; plasma, po, p.o. 10 mg/kg): 0.75 h
half-life ([1]; plasma, po, p.o. 10 mg/kg): 4.6 ± 0.1 h
AUC(0-t) ([1]; plasma, po, p.o. 20 mg/kg): 11.9 ± 3 µM·h
Cmax ([1]; plasma, po, p.o. 20 mg/kg): 1400 ± 300 nM
Tmax ([1]; plasma, po, p.o. 20 mg/kg): 3.1 h
half-life ([1]; plasma, po, p.o. 20 mg/kg): 3.3 ± 0.2 h
bioavailability ([1]; plasma, po, 2 mg/kg): 32 ± 5%
bioavailability ([1]; plasma, po, 10 mg/kg): 45 ± 6%
bioavailability ([1]; plasma, po, 20 mg/kg): 89 ± 24%
clearance [1, 10]: 39 ± 1 mL/min/kg
clearance [1, 11]: 42 ± 1 mL/min/kg
clearance [1, 12]: 39 ± 1 mL/min/kg
Unbound plasma level at Cmax below β2-AR Kd [1]: at least 5 fold
Likely duration of β1-AR blockade [1]: > 24 h
AUC0-t/dose ([1]; i.v. 2 mg/kg): 0.6 ± 0 μM ⋅ h/(mg/kg)
AUC0-t/dose ([1]; i.v. 6 mg/kg): 0.6 ± 0 μM ⋅ h/(mg/kg)
AUC0-t/dose ([1]; i.v. 20 mg/kg): 0.6 ± 0 μM ⋅ h/(mg/kg)
AUC0-t/dose ([1]; p.o. 2 mg/kg): 0.2 ± 0 μM ⋅ h/(mg/kg)
AUC0-t/dose ([1]; p.o. 10 mg/kg): 0.3 ± 0.1 μM ⋅ h/(mg/kg)
AUC0-t/dose ([1]; p.o. 20 mg/kg): 0.5 ± 0.2 μM ⋅ h/(mg/kg)
β1-selectivity over the 5-HT2A receptor (5-HT2A): 1115 fold
Ki (5-HT2A): 5.8 µM
chromatographic logD [2, 13]: 1.5
chromatographic logD [2, 14]: 2
Kd [3]: 1.35 µM
IC50 (CYP2D6): > 20 µM
